# Data reported in patent US20130338130A1 (priority 2009, published 2013).
# Like-named read-outs stand apart in the source and are kept apart here.
# Legend:
# [1] = system: ATCC strain 43300 Staphylococcus aureus; details: ATCC strain 43300 (MRSA); cited from earlier work
# [2] = system: ATCC strain 43300 Staphylococcus aureus; details: for survival (cfu/ml): 24 hours, triplicate platings
# Experimental: Additional antibiotic was added every 24 hours. The growth periods tested were 24 (FIG. 5), 48, 72, 96 and 120 hours.
# (§1) USP<51> Antimicrobial Effectiveness protocol was used as the template experimental paradigm. […] All concentrations were plated out to the 10^−7 dilutions to ascertain cfu/ml. […] Additional antibiotic was added at the initial concentration every 24 hours.
# ATCC strain 43300 Staphylococcus aureus was streaked out for isolations. An isolated colony was chosen, streaked again and incubated. Isolate was chosen and then diluted to a McFarland standard of one. The estimated value was then taken to inoculate tubes containing growth media and 12, 30 or 60 μg/ml methicillin with approximately 10^5 cfu/ml. These tubes were incubated and plated for counting cfu.
# Material was calculated on a 10 ml volume. Sterile methicillin was added to each experimental condition to a final concentration of 12, 30 or 60 μg/ml antibiotic. Lactose Broth positive controls both with and without the 12 μg/ml, 30 μg/ml, 60 μg/ml antibiotic were inoculated with MRSA. […] Tubes were set up in singlet, but plated in triplicate, as described below.
# All tubes were then inoculated with a dilution of the selected ATCC strain 43300 Staphylococcus aureus clone giving a final level of colony forming units of 1.49×10^5/ml (log=5.17). The tubes were incubated at 25° C. and mixed periodically. Antibiotic was re-inoculated every 24 hours at the initial concentration to maintain pressure on the organism. Plating was done at 24, 48, 72, and 120 hours. Each condition was plated by diluting 1 ml of growth material into 9 ml of MLB diluent broth. […] This mixture was serial diluted down to 10^−7 with 1 ml placed in triplicate in a sterile petri dish at each dilution point. 20 mls of TSA was added to each dilution, swirled and allowed to solidify. All dilutions were placed in a 35° C. incubator for 24 to 72 hours. Bacterial colonies on each plate were counted and the average taken then changed into log format. […] Graphs were recorded as log of 5.2 for TNTC to show comparison among the other data points.
# The tubes were spun down at 5000 rpm for 10 minutes. The supernatant was then decanted into 90 mls of Mueller-Hinton broth with 6 μg/ml methicillin. This is for enrichment and the recovery of any MRSA cells that may be present wether healthy or stressed. The pellet had 10 mls Mueller-Hinton broth with 6 μg/ml methicillin added to it to recover any cells that may be present. Both vessels were incubated at 35° C. for 48 hours and plated each 24 hours. Each vessel was plated at 10 dilutions to obtain a 1 cfu detection limit. Since all vessels were at a 1/10 dilution in the enrichment solution plating each vessel in this manner gave us a detection limit of 1 cfu/ml. […] This time point for graphing purposes will be reported as 0 logs.
# [3] = system: ATCC strain 43300 Staphylococcus aureus
# Experimental: Additional antibiotic was added every 24 hours. The growth periods tested were 24 (see FIG. 4), 48, 72, 96 and 120 hours.
# as §1
# ATCC strain 43300 Staphylococcus aureus was streaked out for isolations. An isolated colony was chosen, streaked again and incubated. Isolate was chosen and then diluted to a McFarland standard of one. The estimated value was then taken to inoculate tubes containing growth media and 12, 30 or 60 μg/ml oxacillin with approximately 10^5 cfu/ml. These tubes were incubated and plated for counting cfu. A clone having no observed log reduction in cfu was selected for the rest of the experiment.
# Material was calculated on a 10 ml volume. Sterile oxacillin was added to each experimental condition to a final concentration of 12, 30 or 60 μg/ml antibiotic.
# All tubes were then inoculated with a dilution of the selected ATCC strain 43300 Staphylococcus aureus clone giving a final level of colony forming units of 3.3×10^5/ml (log=5.52). The tubes were incubated at 25° C. and mixed periodically. Antibiotic was re-inoculated every 24 hours at the initial concentration to maintain pressure on the organism. Plating was done at 24, 48, 72, and 120 hours. Each condition was plated by diluting 1 ml of growth material into 9 ml of MLB diluent broth. […] This mixture was serial diluted down to 10^−7 with 1 ml placed in triplicate in a sterile petri dish at each dilution point. 20 mls of TSA was added to each dilution, swirled and allowed to solidify. All dilutions were placed in a 35° C. incubator for 24 to 72 hours. Bacterial colonies on each plate were counted and the average taken then changed into log format. Any cfu/ml observed greater than 3.3×10^5 (log=5.5) were recorded as >3.3×10^5.
# The tube was then taken out of the experiment and tested for ATCC strain 43300 Staphylococcus growth. The tube was spun down at 5000 rpm for 10 minutes. The supernatant was then decanted into 90 mls of Mueller-Hinton broth with 6 μg/ml oxacillin. This is for enrichment and the recovery of any MRSA cells that may be present whether healthy or stressed. The pellet had 10 mls Mueller-Hinton broth with 6 μg/ml oxacillin added to it to recover any cells that may be present. Both vessels were incubated at 35° C. for 48 hours followed by plating every 24 hours. Each vessel was plated at 10 dilutions to obtain a 1 cfu detection limit.
smiles,measurement,setting,value
"COc1cccc(OC)c1C(=O)N[C@@H]1C(=O)N2[C@@H]1SC(C)(C)[C@@H]2C(=O)O [methicillin, reference compound]",MIC,[1],6 µg/mL
same,survival (cfu/ml),"[2]; 12 μg/ml methicillin (re-added every 24 hours) + MSM (% in label), inoculum 1.49×10^5/ml",TNTC
same,survival (cfu/ml),[2]; 30 μg/ml methicillin + MSM (% in label),TNTC
same,survival (cfu/ml),[2]; 60 μg/ml methicillin + MSM (% in label),TNTC
same,decrease in colony forming units from the initial inoculums value,"[2]; methicillin alone, 12 μg/ml, 30 μg/ml and 60 μg/ml",no significant decrease in colony forming units
"Cc1onc(-c2ccccc2)c1C(=O)N[C@@H]1C(=O)N2[C@@H]1SC(C)(C)[C@@H]2C(=O)O [oxacillin, reference compound]",MIC,[1],6 µg/mL
same,survival (cfu/ml),"[3]; 12 μg/ml oxacillin (re-added every 24 hours) + MSM (% in label), 24 hours, three columns = triplicate platings, inoculum 3.3×10^5/ml",>3.3 × 10^5 cfu/ml
same,"survival, Average Log","[3]; 12 μg/ml oxacillin + MSM (% in label), 24 hours",5.5 Log
same,"survival, Average Log","[3]; 12 μg/ml oxacillin + MSM (% in label), 48 hours",5.5 Log
same,survival (cfu/ml),"[3]; 12 μg/ml oxacillin + MSM (% in label), 48 hours, triplicate platings",>3.3 × 10^5 cfu/ml
same,"survival, Average Log","[3]; 12 μg/ml oxacillin + MSM (% in label), 72 hours",5.5 Log
same,survival (cfu/ml),"[3]; 12 μg/ml oxacillin + MSM (% in label), 72 hours, triplicate platings",>3.3 × 10^5 cfu/ml
same,"survival, Average Log","[3]; 12 μg/ml oxacillin + MSM (% in label), 96 hours",5.5 Log
same,survival (cfu/ml),"[3]; 12 μg/ml oxacillin + MSM (% in label), 96 hours, triplicate platings",>3.3 × 10^5 cfu/ml
same,"survival, Average Log","[3]; 12 μg/ml oxacillin + MSM (% in label), 120 hours",5.5 Log
same,survival (cfu/ml),"[3]; 12 μg/ml oxacillin + MSM (% in label), 120 hours, triplicate platings",>3.3 × 10^5 cfu/ml
same,"survival, Average Log","[3]; 30 μg/ml oxacillin + MSM (% in label), 24 hours",5.5 Log
same,survival (cfu/ml),"[3]; 30 μg/ml oxacillin + MSM (% in label), 24 hours, triplicate platings",>3.3 × 10^5 cfu/ml
same,"survival, Average Log","[3]; 30 μg/ml oxacillin + MSM (% in label), 48 hours",5.5 Log
same,survival (cfu/ml),"[3]; 30 μg/ml oxacillin + MSM (% in label), 48 hours, triplicate platings",>3.3 × 10^5 cfu/ml
same,"survival, Average Log","[3]; 30 μg/ml oxacillin + MSM (% in label), 72 hours",5.5 Log
same,survival (cfu/ml),"[3]; 30 μg/ml oxacillin + MSM (% in label), 72 hours, triplicate platings",>3.3 × 10^5 cfu/ml
same,"survival, Average Log","[3]; 30 μg/ml oxacillin + MSM (% in label), 96 hours",5.5 Log
same,survival (cfu/ml),"[3]; 30 μg/ml oxacillin + MSM (% in label), 96 hours, triplicate platings",>3.3 × 10^5 cfu/ml
same,"survival, Average Log","[3]; 30 μg/ml oxacillin + MSM (% in label), 120 hours",5.5 Log
same,survival (cfu/ml),"[3]; 30 μg/ml oxacillin + MSM (% in label), 120 hours, triplicate platings",>3.3 × 10^5 cfu/ml
same,"survival, Average Log","[3]; 60 μg/ml oxacillin + MSM (% in label), 24 hours",5.5 Log
same,survival (cfu/ml),"[3]; 60 μg/ml oxacillin + MSM (% in label), 24 hours, triplicate platings",>3.3 × 10^5 cfu/ml
same,"survival, Average Log","[3]; 60 μg/ml oxacillin + MSM (% in label), 48 hours",5.5 Log
same,survival (cfu/ml),"[3]; 60 μg/ml oxacillin + MSM (% in label), 48 hours, triplicate platings",>3.3 × 10^5 cfu/ml
same,"survival, Average Log","[3]; 60 μg/ml oxacillin + MSM (% in label), 72 hours",5.5 Log
same,survival (cfu/ml),"[3]; 60 μg/ml oxacillin + MSM (% in label), 72 hours, triplicate platings",>3.3 × 10^5 cfu/ml
same,"survival, Average Log","[3]; 60 μg/ml oxacillin + MSM (% in label), 96 hours",5.5 Log
same,survival (cfu/ml),"[3]; 60 μg/ml oxacillin + MSM (% in label), 96 hours, triplicate platings",>3.3 × 10^5 cfu/ml
same,"survival, Average Log","[3]; 60 μg/ml oxacillin + MSM (% in label), 120 hours",5.5 Log
same,survival (cfu/ml),"[3]; 60 μg/ml oxacillin + MSM (% in label), 120 hours, triplicate platings",>3.3 × 10^5 cfu/ml
same,decrease in colony forming units from the initial inoculums value,"[3]; oxacillin alone, 12 μg/ml, 30 μg/ml and 60 μg/ml",no significant decrease in colony forming units
